Consider five compounds from article PMC5321639, “Design and pharmacodynamics of recombinant NZ2114 histidine mutants with improved activity against methicillin-resistant Staphylococcus aureus” (AMB Express, 2017).

≈ marks a conversion by molar mass, not a printed value. Read-outs that look alike come from different tables or passages of the source. Where a SMILES comes first, the peptide text is derived from it. Bridges are numbered along the chain shown (N, C = ends).

For test [1], the system named is S. aureus ATCC43300. Description: Effect of pH on activity (MIC). Type of test: cell-based, Staphylococcus aureus. The note with it: then MIC assay. On the procedure:
(§1) The peptide solutions were diluted twofold with the range of final concentrations were 0.015–32 µg/ml (0.003–7.273 µM) for purified H1, H2, H3, H6, and H8. The test strains were grown in MHB medium at 37 °C to an OD600 of 0.4 and diluted to 1 × 10^5 CFU/ml. The 10 µl peptide and 90 µl cell suspension were added into each well. All assays were performed in triplicate. The antimicrobial activity of NZ2114 and vancomycin were tested as positive controls. The plates were incubated at 37 °C for 18–24 h. MIC was defined as the lowest peptide concentration of ones at which there was no visible growth (Tian et al. [2009]).
(§2) The effect of pH, temperature, NaCl concentration and proteinase on the activity of peptides was evaluated. Peptides were diluted twofold, then adjusted to a pH range from 2.0 to 10.0 and incubated at 37 °C for 4 h. The thermal stability of purified peptides was determined after 1-h incubation of peptides at 4, 20, 40, 60, 80 and 100 °C in deionized water, respectively. Aliquots of peptides were incubated in various proteinases solutions [pepsin (pH 2.0), trypsin (pH 8.0), proteinase K (pH 7.0)] at a ratio of 1:10, w/w (proteinase: peptide) at 37 °C for 3 h. For the ion stability, peptides were incubated in 50, 100, 200, 300, 400, 500 mM sodium chloride solutions, respectively. Other methods and conditions were prepared as the MIC assay described above (Li et al. [2015]; Qu et al. [2016]).

Test [2] concerns S. aureus ATCC43300. Description: Effect of NaCl concentration on activity (MIC). Type of test: cell-based, Staphylococcus aureus. On the procedure: as §1, §2
Test [3] deals with S. aureus ATCC43300. Description: microbe, parasite or virus in culture. The note with it: for MICc (MIC of the most effective combination): checkerboard; for MIC: read-out: MICa (MIC of drug alone); for FIC: MICc/MICa. Type of test: cell-based, Staphylococcus aureus. On the procedure:
The MIC values of four antibiotics (vancomycin, ampicillin, rifampicin and ciprofloxacin) to S. aureus ATCC43300 were tested as the MIC assay described above. The peptide solutions and antibiotics were diluted twofold with the final concentrations ranging from 1/16 to 8× MIC, and added into 96-well plates in a checkerboard fashion (White et al. [1996]). The results of combination were evaluated by calculating the fractional inhibitory concentration index (FICI) of each combination. FIC of H1, H2, H3=MIC of H1, H2, H3, respectively, in combination with antibiotic/MIC of H1, H2, H3 alone; FIC of antibiotics=MIC of antibiotic in combination with peptide/MIC of antibiotic alone; FICI = FIC of H1, H2, H3+ antibiotic, respectively. The result of interaction between two antimicrobial drugs was determined according to: FICI ≤ 0.5 refers to synergy, 0.5 < FICI ≤ 1 refers to additivity, 1 < FICI ≤ 4 refers to indifference, and FICI > 4 is defined as antagonism (Tsuji and Rybak [2006]).

Test [4] relates to S. aureus ATCC43300 (MRSA). Description: Time-kill curve assay. The format is cell-based, Staphylococcus aureus. The note with it: for time for bacterial counts to decrease to 2 log10 CFU/ml (a 99.9% reduction): start 1 × 10^5 CFU/ml, 37 °C, triplicate. As to the method: Bacterial culture (S. aureus ATCC43300) was diluted to 1 × 10^5 CFU/ml and H1, H2, and H3 were added. […] The mixture was cultivated at 250 rpm, 37 °C. The 100-µl samples were taken from each flask at 0, 2, 4, 6, 8, 12 and 24 h of incubation, and serial dilutions of samples were plated to count visible colonies. Vancomycin was tested in the same way as a positive control and the culture without antimicrobial agent as a negative control (Xiong et al. [2011]). All experiments were performed in triplicate.

In test [5] the test system is S. aureus ATCC43300. Briefly: Effect of proteinases on activity (MIC). Type of test: cell-based, Staphylococcus aureus. The note with it: 1:10 w/w proteinase:peptide, 37 °C for 3 h, then MIC assay. On the procedure: as §1, §2
Test [6] concerns S. aureus ATCC43300. Description: Effect of temperature on activity (MIC). The format is cell-based, Staphylococcus aureus. The note with it: then MIC assay. As to the method: as §1, §2
The test system of test [7] is S. aureus ATCC43300. Briefly: Postantibiotic effect (PAE). Type of test: cell-based, Staphylococcus aureus. The note with it: 2 h exposure at 37 °C, 1 × 10^8 CFU/ml, drug removed by 1:10^3 dilution, mean ± SD, n = 3. On the procedure:
After 2 h, the drug was removed by diluting 1:10^3 into the MHB and incubated at 37 °C, 250 rpm. The sample was taken to plate counting every 1 h until the bacterial cultures become turbid. The PAE was calculated by the following formula: PAE = T − C, where T is the time needed for the count of CFU in the test culture to increase 1 log10 (10-fold) above the 0 h and C is the time needed for the count of CFU in the untreated control culture to increase 1 log10 above the 0 h (Giguère et al. [2012]).

For test [8] the following is noted: conventional antibiotics; ref Pankuch and Appelbaum [2009b]; Pankuch et al. [2003]; Watanabe et al. [1997]; cited from earlier work. The text has this:
The PAE is a very important pharmacodynamics parameter in choosing of antibiotic dosage regimens in clinical use (Pankuch and Appelbaum [2009a]).

For `CC[C@H](C)[C@@H]1NC(=O)[C@H](CO)NC(=O)[C@H](CCCCN)NC(=O)[C@@H]2CSSC[C@@H](C(=O)N[C@@H](Cc3ccc(O)cc3)C(=O)O)NC(=O)[C@H](CCCCN)NC(=O)[C@@H]3CSSC[C@H](NC(=O)[C@H](CCCNC(=N)N)NC(=O)[C@H](CC(C)C)NC(=O)[C@H](CC(=O)O)NC(=O)[C@H](CC(=O)O)NC(=O)[C@H](CCC(=O)O)NC(=O)[C@H](CC(N)=O)NC(=O)[C@H](Cc4c[nH]c5ccccc45)NC(=O)[C@@H]4CCCN4C(=O)CNC(=O)[C@H](CC(N)=O)NC(=O)[C@@H](NC(=O)CNC(=O)[C@H](Cc4ccccc4)NC(=O)CN)CSSC[C@H](NC(=O)[C@H](Cc4ccc(O)cc4)NC(=O)CNC(=O)CNC(=O)[C@H](CCCCN)NC(=O)[C@H](Cc4ccc(O)cc4)NC(=O)CNC(=O)[C@H](CCCCN)NC1=O)C(=O)N[C@@H](C)C(=O)N[C@@H](CCCCN)C(=O)NCC(=O)NCC(=O)N[C@@H](Cc1ccccc1)C(=O)N[C@@H](C(C)C)C(=O)N3)C(=O)N[C@@H](CCCCN)C(=O)N[C@@H](CC(N)=O)C(=O)N[C@@H](Cc1c[nH]cn1)C(=O)N2` [H1] (H-GFGCNGPWNEDDLRCKNHCKSIKGYKGGYCAKGGFVCKCY-OH; disulfide 4-30, 15-37, 19-39; N-terminus and C-terminus assumed), in test [1] (pH 2, 37 °C for 4 h), the “MIC after incubation at pH2” value came out at 0.057 μM. In addition, in test [1] (pH 4, 37 °C for 4 h), the “MIC after incubation at pH4” value came to 0.057 μM. Besides, the “MIC after incubation at pH6” value in test [1] (pH 6, 37 °C for 4 h) was 0.057 μM. Besides, in test [1] (pH 8, 37 °C for 4 h), the “MIC after incubation at pH8” value came to 0.057 μM. Further, in test [2] (incubated in 50 mM sodium chloride solution), the “MIC in 50 mM NaCl” value was 0.057 µM (≈ 0.251 µg/mL). The “MIC in 100 mM NaCl” value in test [2] (incubated in 100 mM sodium chloride solution) was determined as 0.057 µM (≈ 0.251 µg/mL). For the same compound, the “MIC in 200 mM NaCl” value in test [2] (incubated in 200 mM sodium chloride solution) amounted to 0.057 µM (≈ 0.251 µg/mL). For the same compound, in test [2] (incubated in 300 mM sodium chloride solution), the “MIC in 300 mM NaCl” value is 0.057 µM (≈ 0.251 µg/mL). In addition, the “MIC in 400 mM NaCl” value in test [2] (incubated in 400 mM sodium chloride solution) came out at 0.057 µM (≈ 0.251 µg/mL). For the same compound, the “MIC in 500 mM NaCl” value in test [2] (incubated in 500 mM sodium chloride solution) is 0.057 µM (≈ 0.251 µg/mL). Moreover, the “MICc (MIC of the most effective combination)” value came out at 0.014 µM in test [3] (in combination with ampicillin), 0.028 µM in test [3] (in combination with ciprofloxacin), 0.056 µM in test [3] (in combination with rifampicin) and 0.056 µM in test [3] (in combination with vancomycin). Further, in test [3] (drug alone), the MIC is recorded as 0.056 µM. Also, the “incubation time after which regrowth occurred” value amounted to 8 h in test [4] (1× MIC) and 12 h in test [4] (2× MIC). Further, the “time for bacterial counts to decrease to 2 log10 CFU/ml (a 99.9% reduction)” value in test [4] (1× MIC) was 6 h; in test [4] (2× MIC) it was 1.5 h; in test [4] (4× MIC), 1 h. For the same compound, in test [4] (2× MIC, 24 h), the “bacterial counts at 24 h after regrowth” value came to 3.40 log10 CFU/ml. The “MIC after Proteinase K” value in test [5] (proteinase K (pH 7.0)) was 0.057 µM (≈ 0.251 µg/mL). Also, the “MIC after Trypsin” value in test [5] (trypsin (pH 8.0)) came out at 0.057 µM (≈ 0.251 µg/mL). In addition, the “MIC after incubation at 4 °C” value in test [6] (1 h at 4 °C in deionized water) came out at 0.057 µM (≈ 0.251 µg/mL). In addition, the “MIC after incubation at 20 °C” value in test [6] (1 h at 20 °C in deionized water) came out at 0.057 µM (≈ 0.251 µg/mL). Besides, the “MIC after incubation at 40 °C” value in test [6] (1 h at 40 °C in deionized water) amounted to 0.057 µM (≈ 0.251 µg/mL). Moreover, in test [6] (1 h at 60 °C in deionized water), the “MIC after incubation at 60 °C” value turned out to be 0.057 µM (≈ 0.251 µg/mL). The “MIC after incubation at 80 °C” value in test [6] (1 h at 80 °C in deionized water) came to 0.057 µM (≈ 0.251 µg/mL). Also, the PAE in test [7] (1× MIC) is 0.90 ± 0.04 h; in test [7] (2× MIC), 2.94 ± 0.07 h.
`NCC[C@H](O)C(=O)N[C@@H]1C[C@H](N)[C@@H](O[C@H]2O[C@H](CN)CC[C@H]2N)[C@H](O)[C@H]1O[C@H]1O[C@H](CO)[C@@H](O)[C@H](N)[C@H]1O` [arbekacin]: the PAE in test [8] was 3.0 to 3.2 h.
Regarding `CO[C@H]1/C=C/O[C@@]2(C)Oc3c(C)c(O)c4c(O)c(c(/C=N/N5CCN(C)CC5)c(O)c4c3C2=O)NC(=O)/C(C)=C\C=C\[C@H](C)[C@H](O)[C@@H](C)[C@@H](O)[C@@H](C)[C@H](OC(C)=O)[C@@H]1C` [rifampicin], the MIC in test [3] (Staphylococcus aureus, ATCC43300) is 0.019 µM. Besides, the entries for the “MICc (MIC of the most effective combination)” value in test [3] (in combination with H1), in test [3] (in combination with H2) and in test [3] (in combination with H3) were 0.019 µM, 0.019 µM and 0.038 µM, respectively. Moreover, the values for the FIC in test [3] (in combination with H1), in test [3] (in combination with H2) and in test [3] (in combination with H3) were 1, 1 and 2, respectively.
With `CN(C)c1cc(NC(=O)CNC(C)(C)C)c(O)c2c1C[C@H]1C[C@H]3[C@H](N(C)C)C(O)=C(C(N)=O)C(=O)[C@@]3(O)C(O)=C1C2=O` [tigecycline], the PAE in test [8] is 3.2 h.
For daptomycin, in test [8], the PAE is 2.0 h.
